# Data taken from patent US8637237B2, “Methods, compositions, and systems for the identification of species-specific or developmental stage-specific insecticides” (The University of North Carolina at Greensboro, priority 2003, dated 2014).
# Several values for one entry are separate records, joined by “and”; a condition that tells them apart may be missing. Equal entries are not always repeated.
# Target: T1, FXR (Rattus norvegicus, UniProt Q62735)
# T1 sequence (Q62735 1-469): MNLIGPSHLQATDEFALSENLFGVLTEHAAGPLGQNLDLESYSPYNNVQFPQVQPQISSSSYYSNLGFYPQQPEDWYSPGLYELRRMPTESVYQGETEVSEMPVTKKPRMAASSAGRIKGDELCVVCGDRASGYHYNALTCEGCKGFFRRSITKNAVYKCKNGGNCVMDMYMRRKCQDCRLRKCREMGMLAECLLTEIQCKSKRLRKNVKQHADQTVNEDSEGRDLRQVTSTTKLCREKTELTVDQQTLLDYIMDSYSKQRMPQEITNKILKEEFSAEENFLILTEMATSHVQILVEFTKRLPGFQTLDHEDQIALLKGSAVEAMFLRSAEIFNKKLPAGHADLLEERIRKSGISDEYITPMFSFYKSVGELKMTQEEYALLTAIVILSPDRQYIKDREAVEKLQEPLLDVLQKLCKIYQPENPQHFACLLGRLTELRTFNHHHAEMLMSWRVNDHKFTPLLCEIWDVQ
# T1 sequence (P28700 1-467 partner): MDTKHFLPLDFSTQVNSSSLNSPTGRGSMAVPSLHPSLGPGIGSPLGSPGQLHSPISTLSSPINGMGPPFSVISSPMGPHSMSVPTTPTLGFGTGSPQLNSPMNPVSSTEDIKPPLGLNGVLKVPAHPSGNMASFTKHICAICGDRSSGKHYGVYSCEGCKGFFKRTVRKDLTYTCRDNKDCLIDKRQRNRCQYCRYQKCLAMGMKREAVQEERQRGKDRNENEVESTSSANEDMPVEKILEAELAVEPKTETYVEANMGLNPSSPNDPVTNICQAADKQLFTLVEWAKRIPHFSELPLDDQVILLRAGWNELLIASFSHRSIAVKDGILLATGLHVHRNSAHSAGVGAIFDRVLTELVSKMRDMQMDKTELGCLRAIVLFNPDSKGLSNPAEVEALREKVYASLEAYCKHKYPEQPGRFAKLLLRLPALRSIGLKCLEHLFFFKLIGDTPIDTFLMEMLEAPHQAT
# Assay: cell-based
# Conditions: for FXR-dependent CAT activity, induction: 50 μM
# Summary of the method: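 CHO cells co-transfected with FXR, mouse RXRα and a (EcRE)5-ΔMTV-CAT reporter, with β-galactosidase for normalization. An RXR-dependent CRBPII-CAT reporter was run in parallel. Cells were exposed to candidate juvenoids for 24 h; CAT activity normalized to β-gal and expressed as fold induction over vehicle controls.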
# [1] = final dose of 50 ∝M, 1 = induction less than 2-fold below cytotoxic doses
Compound,"FXR-dependent activity, induction (dose not stated)",FXR ACTIVITY (fold-induction) [1] [fold-induction],"FXR-dependent CAT activity, induction",other results
"CC(C)(O)CC[C@@H](O)[C@](C)(O)[C@H]1CC[C@@]2(O)C3=CC(=O)[C@@H]4C[C@@H](O)[C@@H](O)C[C@]4(C)[C@H]3CC[C@]12C [20E, 20-hydroxyecdysone]",unresponsive,–,–,–
"COC(=O)/C=C(\C)CC/C=C(\C)CC[C@H]1OC1(C)C [JHIII, juvenile hormone III]",–,20,–,"dose that elicits FXR-dependent activity in the CHO assay: 2 µM; FXR-dependent CAT activity, induction (listed as JH III): 15 fold; FXR-dependent CAT activity, induction (listed as juvenile hormone III): 20 fold"
CC(C)=CCCC(C)=CCCC(C)=CC(=O)O [farnesoic acid],–,3,2 fold and 3 fold,–
COC(=O)/C=C(\C)CC/C=C(\C)CCC=C(C)C [methyl farnesoate],–,–,6 fold,–
"CC(C)CC[C@@H](O)[C@](C)(O)[C@H]1CC[C@@]2(O)C3=CC(=O)[C@]4(O)C[C@@H](O)[C@@H](O)C[C@]4(C)[C@H]3[C@H](O)C[C@]12C [murA, muristerone A]",unresponsive,–,–,–
juvocimene,–,–,–,"FXR-dependent activity, induction (25 μM): 5 fold; FXR ACTIVITY (fold-induction) (dose 25 μM): 9 fold-induction; RXR mediated transcription, increase (plant-derived JH agonists examined as FXR effectors): 10 fold"
